Reference: patent publication US20090270342A1, “IMMUNOREGULATORY AGENT” (priority 2006, published 2009)

Tested on: intestinal lymph node cells
Experiment: Production of IgA, IgG and cytokines by intestinal lymph node cells of mice fed lactosucrose (Experiment 3)
Assay type: in vivo
Conditions: for IFN-γ produced by intestinal lymph node cells / IL-4 produced by intestinal lymph node cells / IL-6 produced by intestinal lymph node cells / IL-10 produced by intestinal lymph node cells / IgA produced by intestinal lymph node cells / IgG produced by intestinal lymph node cells: four weeks
Method: In order to investigate what type of immunopathologically-mediated tissue exerts the enhancing effect on gut immunity, the amounts of IgA, IgG, and various cytokines were measured. Similarly as in Experiment 1, female BALB/c mice (six weeks old) were preliminary reared for one week on “AIN-93G”, the same standard purified diet as used in Experiment 1. Successively, “LS-90P”, a saccharide composition comprising 91.8% (w/w), on a dry solid basis, of lactosucrose commercialized by ENSUIKO Sugar Refining Co., Ltd., Tokyo, Japan, was incorporated into the above purified diet, in which corn starch equal to the amount of the saccharide composition comprising lactosucrose had been removed, to give a lactosucrose content of 2% (w/w) or 5% (w/w), and five mice/group were allowed to ingest the resulting test diet freely. Mice, allowed to ingest “AIN-93G”, as the standard purified diet, were used as control. At four weeks after starting the administration of the test diet, Peyer's patch and intestinal lymph nodes were respectively removed from the mice and cut using a scissor. Then, the resultants were respectively treated in 0.2% (w/v) aqueous collagenase solution at 37° C. for 30 min, and filtrated using a cell strainer to obtain cell suspensions. Each cell suspension was centrifuged to collect cells and the resulting cells were suspended into a 45% (v/v) solution of “PERCOLL”, commercialized by GE Healthcare, to make into a cell suspension. Each resulting suspension was successively placed on a 75% (v/v) “PERCOLL” solution and centrifuged at 1,000×g for 10 min. Cells in a boundary phase between 45% (v/v) and 75% (v/v) “PERCOLL” solution were collected and suspended in RPMI1640 medium comprising 10% FCS and 10 mM HEPES, and the cell concentration was adjusted to 1×10^6 cells/ml. The resulting cell suspension was placed in a 24-well plate to give one ml/well each. Then, 2 μg/ml of Concanavaline A (Con A) as a stimulator to T-cell or 10 μg/ml of lipopolysaccharide (LPS) as a stimulator to B-cell and macrophage cell was admixed with the cell suspension, and then the cells were cultured at 37° C. for 48 hours using 5% (v/v) carbon dioxide gas. A culture supernatant was collected from each well, and the amounts of IgA, IgG, IFN-γ, interleukin-4 (IL-4), IL-6, interleukin-10 (IL-10), and TGF-β were measured by ELISA using an anti-mouse IgA antibody, anti-mouse IgG antibody, anti-mouse IFN-γ antibody (commercialized by Pepro Tech EC. Ltd.), anti-mouse IL-4 antibody (commercialized by R&D Systems), anti-mouse IL-6 antibody (commercialized by R&D Systems), anti-mouse IL-10 antibody (commercialized by R&D Systems), and anti-mouse TGF-β antibody (commercialized by Promega Co., Wisconsin, USA), and the average values of those from five mice were determined. The results for Peyer's patch cells and intestinal lymph node cells are respectively in Tables 3 and 4. The percentages in parentheses in the tables mean a relative value to the amount of IgA, IgG, IFN-γ, IL-4, IL-6, IL-10 or TGF-β produced by Peyer's patch cells or intestinal lymph node cells from the control mice.

[1] = Lactosucrose 2% (w/w) diet, Con A
[2] = Lactosucrose 2% (w/w) diet, LPS
[3] = Lactosucrose 2% (w/w) diet, LPS, DL: Detection limit
[4] = Lactosucrose 5% (w/w) diet, Con A
[5] = Lactosucrose 5% (w/w) diet, LPS
[6] = Lactosucrose 5% (w/w) diet, LPS, DL: Detection limit

OC[C@H]1O[C@@H](O[C@H]2[C@H](O)[C@@H](O)[C@@H](O[C@]3(CO)O[C@H](CO)[C@@H](O)[C@@H]3O)O[C@@H]2CO)[C@H](O)[C@@H](O)[C@H]1O [Lactosucrose, β-D-galactosyl-(1,4)-α-D-glucosyl-(1,2)-β-D-fructoside]
IFN-γ produced by intestinal lymph node cells [1]: 8.5 ± 3.4 ng/mL | IL-4 produced by intestinal lymph node cells [1]: 22 ± 0.89 pg/mL | IL-6 produced by intestinal lymph node cells [1]: 3.0 ± 0.81 pg/mL | IL-10 produced by intestinal lymph node cells [1]: 14 ± 15 pg/mL | IgA produced by intestinal lymph node cells [1]: 41 ± 15 µg/mL | IgG produced by intestinal lymph node cells [1]: 1.9 ± 1.5 ng/mL | IL-6 produced by intestinal lymph node cells [2]: 7.4 ± 2.6 pg/mL | IgA produced by intestinal lymph node cells [2]: 38 ± 17 µg/mL | IgG produced by intestinal lymph node cells [2]: 1.5 ± 1.0 ng/mL | IFN-γ produced by intestinal lymph node cells [3]: Below DL* | IL-4 produced by intestinal lymph node cells [3]: Below DL* | IL-10 produced by intestinal lymph node cells [3]: Below DL* | IFN-γ produced by intestinal lymph node cells, relative value to control (Lactosucrose 2% (w/w), Con A): (127%) | IL-4 produced by intestinal lymph node cells, relative value to control (Lactosucrose 2% (w/w), Con A): (88%) | IL-6 produced by intestinal lymph node cells, relative value to control (Lactosucrose 2% (w/w), Con A): (103%) | IL-10 produced by intestinal lymph node cells, relative value to control (Lactosucrose 2% (w/w), Con A): (127%) | IgA produced by intestinal lymph node cells, relative value to control (Lactosucrose 2% (w/w), Con A): (85%) | IgG produced by intestinal lymph node cells, relative value to control (Lactosucrose 2% (w/w), Con A): (100%) | IL-6 produced by intestinal lymph node cells, relative value to control (Lactosucrose 2% (w/w), LPS): (107%) | IgA produced by intestinal lymph node cells, relative value to control (Lactosucrose 2% (w/w), LPS): (93%) | IgG produced by intestinal lymph node cells, relative value to control (Lactosucrose 2% (w/w), LPS): (115%) | IFN-γ produced by intestinal lymph node cells [4]: 3.8 ± 1.2 ng/mL | IL-4 produced by intestinal lymph node cells [4]: 21 ± 1.1 pg/mL | IL-6 produced by intestinal lymph node cells [4]: 2.7 ± 0.44 pg/mL | IL-10 produced by intestinal lymph node cells [4]: 14 ± 12 pg/mL | IgA produced by intestinal lymph node cells [4]: 37 ± 31 µg/mL | IgG produced by intestinal lymph node cells [4]: 1.00 ± 0.94 ng/mL | IL-6 produced by intestinal lymph node cells [5]: 4.3 ± 1.1 pg/mL | IgA produced by intestinal lymph node cells [5]: 29 ± 22 µg/mL | IgG produced by intestinal lymph node cells [5]: 0.79 ± 0.79 ng/mL | IFN-γ produced by intestinal lymph node cells [6]: Below DL* | IL-4 produced by intestinal lymph node cells [6]: Below DL* | IL-10 produced by intestinal lymph node cells [6]: Below DL* | IFN-γ produced by intestinal lymph node cells, relative value to control (Lactosucrose 5% (w/w), Con A): (57%) | IL-4 produced by intestinal lymph node cells, relative value to control (Lactosucrose 5% (w/w), Con A): (84%) | IL-6 produced by intestinal lymph node cells, relative value to control (Lactosucrose 5% (w/w), Con A): (93%) | IL-10 produced by intestinal lymph node cells, relative value to control (Lactosucrose 5% (w/w), Con A): (127%) | IgA produced by intestinal lymph node cells, relative value to control (Lactosucrose 5% (w/w), Con A): (77%) | IgG produced by intestinal lymph node cells, relative value to control (Lactosucrose 5% (w/w), Con A): (53%) | IL-6 produced by intestinal lymph node cells, relative value to control (Lactosucrose 5% (w/w), LPS): (62%) | IgA produced by intestinal lymph node cells, relative value to control (Lactosucrose 5% (w/w), LPS): (71%) | IgG produced by intestinal lymph node cells, relative value to control (Lactosucrose 5% (w/w), LPS): (61%)
